# ChEMBL document CHEMBL1155915, “Anticonvulsant activity of some xanthone derivatives” (Bioorg Med Chem, 2008)
# Activity calls are given as the source filed them. The rule behind the calls is not given here.
# Legend:
# [1] = tested on: Mus musculus; experiment: Anticonvulsant activity against scMet-induced seizures in ip dosed mouse; type: functional
# [2] = species on record: Mus musculus; experiment: Protective index, ratio of TD50 for mouse by rotarod test to ED50 for mouse by scMET test; type: functional
# [3] = Displacement of [3H]nitrendipine from voltage-dependent calcium channel in rat brain cortex by scintillation counting; type: tissue-based
# [4] = tested on: Mus musculus; experiment: Neurotoxicity in mouse at 30 mg/kg, ip after 4 hrs by rotarod test; type: toxicity, organism-based; set-up: dose 30 mg/kg, route intraperitoneal; conditions: in vivo
# [5] = tested on: Mus musculus; experiment: Neurotoxicity in mouse at 100 mg/kg, ip after 0.5 hrs by rotarod test; type: toxicity, organism-based; set-up: dose 100 mg/kg, route intraperitoneal; conditions: in vivo
# [6] = tested on: Mus musculus; experiment: Neurotoxicity in mouse at 100 mg/kg, ip after 4 hrs by rotarod test; type: toxicity, organism-based; set-up: dose 100 mg/kg, route intraperitoneal; conditions: in vivo
# [7] = tested on: Mus musculus; experiment: Neurotoxicity in mouse at 300 mg/kg, ip after 4 hrs by rotarod test; type: toxicity, organism-based; set-up: dose 300 mg/kg, route intraperitoneal; conditions: in vivo
# [8] = tested on: Rattus norvegicus; experiment: Anticonvulsant activity against maximal electroshock-induced seizures in rat at 30 mg/kg, po after 0.25 hrs; type: functional, organism-based; set-up: dose 30 mg/kg
# [9] = tested on: Rattus norvegicus; experiment: Anticonvulsant activity against maximal electroshock-induced seizures in rat at 30 mg/kg, po after 0.5 hrs; type: functional, organism-based; set-up: dose 30 mg/kg
# [10] = tested on: Rattus norvegicus; experiment: Anticonvulsant activity against maximal electroshock-induced seizures in rat at 30 mg/kg, po after 1 hr; type: functional, organism-based; set-up: dose 30 mg/kg
# [11] = tested on: Rattus norvegicus; experiment: Anticonvulsant activity against maximal electroshock-induced seizures in rat at 30 mg/kg, po after 2 hrs; type: functional, organism-based; set-up: dose 30 mg/kg
# [12] = tested on: Rattus norvegicus; experiment: Anticonvulsant activity against maximal electroshock-induced seizures in rat at 30 mg/kg, po after 4 hrs; type: functional, organism-based; set-up: dose 30 mg/kg
# [13] = tested on: Rattus norvegicus; experiment: Neurotoxicity in rat at 30 mg/kg, po after 0.25 hrs by rotarod test; type: toxicity, organism-based; set-up: dose 30 mg/kg, route oral; conditions: in vivo
# [14] = tested on: Rattus norvegicus; experiment: Neurotoxicity in rat at 30 mg/kg, po after 0.5 hrs by rotarod test; type: toxicity, organism-based; set-up: dose 30 mg/kg, route oral; conditions: in vivo
# [15] = tested on: Rattus norvegicus; experiment: Neurotoxicity in rat at 30 mg/kg, po after 1 hr by rotarod test; type: toxicity, organism-based; set-up: dose 30 mg/kg, route oral; conditions: in vivo
# [16] = tested on: Rattus norvegicus; experiment: Neurotoxicity in rat at 30 mg/kg, po after 2 hrs by rotarod test; type: toxicity, organism-based; set-up: dose 30 mg/kg, route oral; conditions: in vivo
# [17] = tested on: Rattus norvegicus; experiment: Neurotoxicity in rat at 30 mg/kg, po after 4 hrs by rotarod test; type: toxicity, organism-based; set-up: dose 30 mg/kg, route oral; conditions: in vivo
# [18] = tested on: Mus musculus; experiment: Anticonvulsant activity against maximal electroshock-induced seizures in mouse at 30 mg/kg, ip after 0.5 hrs; type: functional, organism-based; set-up: dose 30 mg/kg
# [19] = tested on: Mus musculus; experiment: Anticonvulsant activity against maximal electroshock-induced seizures in mouse at 30 mg/kg, ip after 4 hrs; type: functional, organism-based; set-up: dose 30 mg/kg
# [20] = tested on: Mus musculus; experiment: Anticonvulsant activity against maximal electroshock-induced seizures in mouse at 100 mg/kg, ip after 4 hrs; type: functional, organism-based; set-up: dose 100 mg/kg
# [21] = tested on: Mus musculus; experiment: Anticonvulsant activity against maximal electroshock-induced seizures in mouse at 300 mg/kg, ip after 0.5 hrs; type: functional, organism-based; set-up: dose 300 mg/kg
# [22] = tested on: Mus musculus; experiment: Anticonvulsant activity against maximal electroshock-induced seizures in mouse at 300 mg/kg, ip after 4 hrs; type: functional, organism-based; set-up: dose 300 mg/kg
# [23] = tested on: Mus musculus; experiment: Anticonvulsant activity against scMet-induced seizures in mouse at 100 mg/kg, ip after 4 hrs; type: functional, organism-based; set-up: dose 100 mg/kg
# [24] = tested on: Mus musculus; experiment: Anticonvulsant activity against scMet-induced seizures in mouse at 30 mg/kg, ip after 0.5 hrs; type: functional, organism-based; set-up: dose 30 mg/kg
# [25] = tested on: Mus musculus; experiment: Anticonvulsant activity against scMet-induced seizures in mouse at 30 mg/kg, ip after 4 hrs; type: functional, organism-based; set-up: dose 30 mg/kg
# [26] = tested on: Mus musculus; experiment: Anticonvulsant activity against scMet-induced seizures in mouse at 100 mg/kg, ip after 0.5 hrs; type: functional, organism-based; set-up: dose 100 mg/kg
# [27] = tested on: Mus musculus; experiment: Anticonvulsant activity against scMet-induced seizures in mouse at 300 mg/kg, ip after 0.5 hrs; type: functional, organism-based; set-up: dose 300 mg/kg
# [28] = tested on: Mus musculus; experiment: Anticonvulsant activity against scMet-induced seizures in mouse at 300 mg/kg, ip after 4 hrs; type: functional, organism-based; set-up: dose 300 mg/kg
# [29] = tested on: Mus musculus; experiment: Neurotoxicity in mouse at 30 mg/kg, ip after 0.5 hrs by rotarod test; type: toxicity, organism-based; set-up: dose 30 mg/kg, route intraperitoneal; conditions: in vivo
# [30] = tested on: Mus musculus; experiment: Anticonvulsant activity against maximal electroshock-induced seizures in mouse at 100 mg/kg, ip after 0.5 hrs; type: functional, organism-based; set-up: dose 100 mg/kg
# [31] = Neurotoxicity in ip dosed mouse by rotarod test; type: toxicity, organism-based; conditions: in vivo
# [32] = Displacement of [3H]flunitrazepam from benzodiazepine receptor in rat brain cortex by scintillation counting; type: tissue-based
# [33] = tested on: Mus musculus; experiment: Anticonvulsant activity against maximal electroshock-induced seizures in ip dosed mouse; type: functional
# [34] = species on record: Mus musculus; experiment: Protective index, ratio of TD50 for mouse by rotarod test to ED50 for mouse by MES test; type: functional
# [35] = tested on: Mus musculus; experiment: Neurotoxicity in mouse at 10 mg/kg, ip after 0.5 hrs by rotarod test; type: toxicity, organism-based; set-up: dose 10 mg/kg, route intraperitoneal; conditions: in vivo
# [36] = tested on: Mus musculus; experiment: Neurotoxicity in mouse at 300 mg/kg, ip after 0.5 hrs by rotarod test; type: toxicity, organism-based; set-up: dose 300 mg/kg, route intraperitoneal; conditions: in vivo
# [37] = tested on: Mus musculus; experiment: Neurotoxicity in mouse at 3 mg/kg, ip after 0.5 hrs by rotarod test; type: toxicity, organism-based; set-up: dose 3 mg/kg, route intraperitoneal; conditions: in vivo
# [38] = tested on: Mus musculus; experiment: Anticonvulsant activity against maximal electroshock-induced seizures in mouse at 3 mg/kg, ip after 0.5 hrs; type: functional, organism-based; set-up: dose 3 mg/kg
# [39] = tested on: Mus musculus; experiment: Anticonvulsant activity against maximal electroshock-induced seizures in mouse at 10 mg/kg, ip after 0.5 hrs; type: functional, organism-based; set-up: dose 10 mg/kg
SMILES,ED50 [1] [mg/kg],Neurotoxicity [4],Neurotoxicity [7],Activity [9],Neurotoxicity [13],Neurotoxicity [14],Neurotoxicity [15],Neurotoxicity [16],Neurotoxicity [17],Activity [18],Activity [19],Activity [20],Activity [21],Activity [22],Activity [23],Activity [24],Activity [25],Activity [26],Activity [27],Activity [28],also measured
NC(=O)N1c2ccccc2C=Cc2ccccc21 [CARBAMAZEPINE],> 50,–,–,–,–,–,–,–,–,–,–,–,–,–,–,–,–,–,–,–,PI [2]: <1; EC50 [3]: 1.2 µM
CC(C)(CCO)NCc1ccc2oc3cc(Cl)ccc3c(=O)c2c1,–,Not Active,Not Active,inactive,Not Active,Not Active,Not Active,Not Active,Not Active,inactive,inactive,inactive,Active,inactive,inactive,inactive,inactive,inactive,inactive,inactive,Neurotoxicity [5]: Not Active; Neurotoxicity [6]: Not Active; Activity [8]: inactive; Activity [10]: inactive; Activity [11]: inactive; Activity [12]: inactive
CC(CCl)NCc1ccc2oc3cc(Cl)ccc3c(=O)c2c1.Cl (racemic),–,Not Active,–,inactive,Not Active,Not Active,Not Active,Not Active,Not Active,inactive,inactive,inactive,inactive,inactive,inactive,inactive,inactive,inactive,inactive,inactive,Neurotoxicity [29]: Not Active; Neurotoxicity [6]: Not Active; Activity [10]: inactive; Activity [11]: inactive; Activity [30]: inactive
CCCC(CCC)C(=O)[O-].[Na+] [VALPROATE SODIUM],290,–,–,–,–,–,–,–,–,–,–,–,–,–,–,–,–,–,–,–,TD50 [31]: 483 mg/kg
COC(=O)C1=C(C)NC(C)=C(C(=O)OC)C1c1ccccc1[N+](=O)[O-] [NIFEDIPINE],–,–,–,–,–,–,–,–,–,–,–,–,–,–,–,–,–,–,–,–,EC50 [3]: 0.001 µM
CN1C(=O)CN=C(c2ccccc2)c2cc(Cl)ccc21 [DIAZEPAM],–,–,–,–,–,–,–,–,–,–,–,–,–,–,–,–,–,–,–,–,EC50 [32]: 0.7 µM
C[C@H](CO)NCc1ccc2oc3cc(Cl)ccc3c(=O)c2c1,> 500,Not Active,Not Active,inactive,Not Active,Not Active,Not Active,Not Active,Not Active,inactive,inactive,inactive,Active,Active,inactive,inactive,inactive,inactive,inactive,inactive,Neurotoxicity [29]: Not Active; Neurotoxicity [6]: Not Active; Activity [8]: inactive; Activity [10]: inactive; TD50 [31]: 483 mg/kg; PI [2]: <0.96; ED50 [33]: 77.4 mg/kg; PI [34]: 6.23
CCC(O)CNCc1ccc2oc3cc(Cl)ccc3c(=O)c2c1 (racemic),–,Not Active,Neurotoxic,–,Not Active,Not Active,Not Active,Not Active,Not Active,Active,inactive,Active,Active,Active,inactive,inactive,inactive,inactive,inactive,inactive,Neurotoxicity [35]: Not Active; Neurotoxicity [36]: Neurotoxic; Neurotoxicity [37]: Not Active; Activity [38]: inactive; Activity [39]: inactive; Activity [30]: Active
CC[C@@H](CO)NCCOc1c(C)cccc1C,–,–,–,–,–,–,–,–,–,–,–,–,–,–,–,–,–,–,–,–,ED50 [33]: 7.57 mg/kg; PI [34]: 4.55
O=C1NC(=O)C(c2ccccc2)(c2ccccc2)N1 [PHENYTOIN],> 50,–,–,–,–,–,–,–,–,–,–,–,–,–,–,–,–,–,–,–,PI [2]: <0.9; ED50 [33]: 6.48 mg/kg; PI [34]: 6.6
CC[C@@H](CO)NCc1ccc2oc3cc(Cl)ccc3c(=O)c2c1,–,Not Active,Neurotoxic,inactive,Not Active,Not Active,Not Active,Not Active,Not Active,inactive,inactive,inactive,Active,Active,inactive,inactive,inactive,inactive,inactive,inactive,Neurotoxicity [29]: Not Active; Neurotoxicity [36]: Neurotoxic; Activity [8]: inactive; Activity [11]: inactive; Activity [30]: Active
